The structures appear in SMILES notation.

This assay addresses T1, Human CaV2.2 channels (Homo sapiens, UniProt Q00975).
T1 construct: expressed in transfected cells
Put plainly: Fluorescent assay for CaV2.2 channels using potassium depolarization to induce channel opening (FLIPR, Fluo-4). It is filed as cell-based. To be noted: 3 μM test compound, 30 mM KCl, HEK293 cells stably expressing human CaV2.2; read-out: %-Inhib (CaV2.2) @3 μM @30 mM KCl. An excerpt:
In the process, the Ca^2+ influx is quantified in the FLIPR assay with the aid of a Ca^2+-sensitive dye (type Fluo-4, Molecular Probes Europe BV, Leiden, the Netherlands) in a fluorescent imaging plate reader (FLIPR 3, Molecular Devices, Sunnyvale, USA), as described hereinafter.
2.1 Fluorescent Assay for CaV2.2 Channels Using Potassium Depolarization to Induce Channel Opening
Human CaV2.2 channels were stably expressed in HEK293 cells together with alpha2-delta and beta subunits of voltage gated calcium channels. In addition, an inwardly rectifying potassium channel (Kir2.3) was stably expressed in these cells to augment control of the cell membrane potential by the concentration of extracellular potassium ions. Raise of the extracellular potassium concentration leads to depolarization of the membrane potential and thus regulates the voltage dependent state of CaV2.2 channels. For preparation, cells were seeded in black poly-D-lysine coated 96-well plates (Becton Dickinson, Biocoat 4640) in 100 μl medium [500 ml DMEM/F-12 plus Glutamax (Invitrogen 31331-093) plus 5.5 ml MEM NEAA 100× (Invitrogen 11140-035) plus 50 ml FBS decomplemented (Invitrogen 10270-106) plus 4.4 ml Geneticin (Invitrogen 10131-027) plus 1.1 ml Hygromycin B (Invitrogen 10687-010) plus 68.75 μl Puromycin (Clontech, 631306)] at a cell density of 45.000 cells per well.
Plates were incubated at 37° C. (5% CO2) for 20 to 23 hours. On the day of experiment medium was discarded and cells were loaded with Fluo 4 by addition of 100 μl of basic assay buffer (10 mM HEPES, 30 mM KCl, 120 mM NaCl, 0.8 mM CaCl2, 1.7 mM MgCl2, 10 mM Glucose, 0.1% BSA. pH 7.4) containing 2 μM Fluo 4 (Molecular Probes; F-14201), 0.01% pluronic acid (Molecular Probes; P-6866) and 2.5 mM probenecid (Molecular Probes; P36400). Cells were incubated in the dark at 25° C. for 60 min. Then the dye containing buffer was discarded and 100 μl basic assay buffer was added. Subsequently cells were incubated in the dark at 25° C. for 15 min. 25 μl of basic assay buffer with or without test compound were added and cells were incubated again in the dark at 25° C. for 15 min. Fluorescence intensity was measured on a FLIPR 3 instrument (Molecular Devices Corp., Sunnyvale, Calif.) with excitation at 480 nm and emission at 535 nm. After continuously reading fluorescence for 30 sec, 50 μl of basic assay buffer containing 210 mM KCl (NaCl omitted) were added for depolarization. Peak fluorescent signal intensity was determined and the amplitude of the peak signal, normalized to base line, was used to measure channel inhibition by test compounds.

T1 sequence (Q00975 whole entry): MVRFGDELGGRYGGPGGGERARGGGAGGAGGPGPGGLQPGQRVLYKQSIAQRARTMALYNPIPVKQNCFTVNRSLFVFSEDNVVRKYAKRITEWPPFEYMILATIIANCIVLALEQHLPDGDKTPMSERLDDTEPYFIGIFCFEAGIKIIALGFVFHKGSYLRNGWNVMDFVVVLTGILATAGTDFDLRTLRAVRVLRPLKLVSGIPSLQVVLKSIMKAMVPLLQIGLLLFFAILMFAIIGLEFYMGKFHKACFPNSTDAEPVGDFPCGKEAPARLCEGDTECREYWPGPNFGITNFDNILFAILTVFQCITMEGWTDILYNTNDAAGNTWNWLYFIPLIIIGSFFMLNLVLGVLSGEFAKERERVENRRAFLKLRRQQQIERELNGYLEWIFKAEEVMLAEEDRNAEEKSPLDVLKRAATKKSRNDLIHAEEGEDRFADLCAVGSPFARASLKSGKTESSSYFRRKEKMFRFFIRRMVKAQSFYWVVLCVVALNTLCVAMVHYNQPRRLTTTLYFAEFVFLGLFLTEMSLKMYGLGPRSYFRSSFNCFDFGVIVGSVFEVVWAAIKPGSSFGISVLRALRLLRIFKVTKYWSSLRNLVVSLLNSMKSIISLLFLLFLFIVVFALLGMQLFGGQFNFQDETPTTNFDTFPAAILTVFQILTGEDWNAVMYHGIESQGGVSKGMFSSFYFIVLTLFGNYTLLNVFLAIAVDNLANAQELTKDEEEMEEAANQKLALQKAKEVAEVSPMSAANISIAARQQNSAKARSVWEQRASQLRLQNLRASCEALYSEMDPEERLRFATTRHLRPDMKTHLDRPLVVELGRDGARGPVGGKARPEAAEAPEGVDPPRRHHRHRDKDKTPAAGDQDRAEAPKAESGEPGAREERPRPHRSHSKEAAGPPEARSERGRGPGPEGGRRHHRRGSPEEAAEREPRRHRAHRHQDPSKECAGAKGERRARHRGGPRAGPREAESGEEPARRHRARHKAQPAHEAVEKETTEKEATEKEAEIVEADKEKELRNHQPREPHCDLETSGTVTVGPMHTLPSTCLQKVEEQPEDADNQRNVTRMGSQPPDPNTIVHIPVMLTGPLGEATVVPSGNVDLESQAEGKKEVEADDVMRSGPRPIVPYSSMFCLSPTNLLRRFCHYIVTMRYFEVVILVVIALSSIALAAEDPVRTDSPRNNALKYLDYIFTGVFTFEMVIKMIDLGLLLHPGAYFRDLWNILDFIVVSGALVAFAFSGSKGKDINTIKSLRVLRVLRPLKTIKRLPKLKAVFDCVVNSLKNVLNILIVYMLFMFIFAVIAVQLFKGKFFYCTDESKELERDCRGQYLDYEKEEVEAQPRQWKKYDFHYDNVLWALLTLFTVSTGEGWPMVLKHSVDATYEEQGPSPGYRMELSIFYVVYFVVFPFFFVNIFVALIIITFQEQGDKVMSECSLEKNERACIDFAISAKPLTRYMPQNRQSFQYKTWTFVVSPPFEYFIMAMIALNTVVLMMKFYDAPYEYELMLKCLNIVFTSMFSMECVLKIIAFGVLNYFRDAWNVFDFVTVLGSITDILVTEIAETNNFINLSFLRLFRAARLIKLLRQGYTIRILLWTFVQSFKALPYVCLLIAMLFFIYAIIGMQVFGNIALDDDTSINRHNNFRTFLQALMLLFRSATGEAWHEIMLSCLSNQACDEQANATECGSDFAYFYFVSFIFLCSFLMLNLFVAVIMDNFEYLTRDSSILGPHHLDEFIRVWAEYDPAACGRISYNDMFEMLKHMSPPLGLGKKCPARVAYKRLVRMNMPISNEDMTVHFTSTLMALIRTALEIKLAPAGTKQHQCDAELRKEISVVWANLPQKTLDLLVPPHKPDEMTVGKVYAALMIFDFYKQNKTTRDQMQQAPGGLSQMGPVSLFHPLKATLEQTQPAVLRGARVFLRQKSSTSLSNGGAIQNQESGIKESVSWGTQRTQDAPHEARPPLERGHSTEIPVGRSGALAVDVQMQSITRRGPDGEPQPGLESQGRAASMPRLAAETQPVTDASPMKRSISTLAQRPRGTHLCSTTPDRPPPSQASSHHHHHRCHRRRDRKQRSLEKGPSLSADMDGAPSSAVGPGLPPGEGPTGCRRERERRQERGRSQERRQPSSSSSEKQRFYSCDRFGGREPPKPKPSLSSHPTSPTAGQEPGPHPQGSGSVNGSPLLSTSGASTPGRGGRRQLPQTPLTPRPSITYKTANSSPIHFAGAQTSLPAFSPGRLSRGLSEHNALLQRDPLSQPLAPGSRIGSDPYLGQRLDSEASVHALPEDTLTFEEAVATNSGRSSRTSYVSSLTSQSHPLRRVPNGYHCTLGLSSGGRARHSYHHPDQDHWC
T1 sequence (P54289 25-1103, further chain): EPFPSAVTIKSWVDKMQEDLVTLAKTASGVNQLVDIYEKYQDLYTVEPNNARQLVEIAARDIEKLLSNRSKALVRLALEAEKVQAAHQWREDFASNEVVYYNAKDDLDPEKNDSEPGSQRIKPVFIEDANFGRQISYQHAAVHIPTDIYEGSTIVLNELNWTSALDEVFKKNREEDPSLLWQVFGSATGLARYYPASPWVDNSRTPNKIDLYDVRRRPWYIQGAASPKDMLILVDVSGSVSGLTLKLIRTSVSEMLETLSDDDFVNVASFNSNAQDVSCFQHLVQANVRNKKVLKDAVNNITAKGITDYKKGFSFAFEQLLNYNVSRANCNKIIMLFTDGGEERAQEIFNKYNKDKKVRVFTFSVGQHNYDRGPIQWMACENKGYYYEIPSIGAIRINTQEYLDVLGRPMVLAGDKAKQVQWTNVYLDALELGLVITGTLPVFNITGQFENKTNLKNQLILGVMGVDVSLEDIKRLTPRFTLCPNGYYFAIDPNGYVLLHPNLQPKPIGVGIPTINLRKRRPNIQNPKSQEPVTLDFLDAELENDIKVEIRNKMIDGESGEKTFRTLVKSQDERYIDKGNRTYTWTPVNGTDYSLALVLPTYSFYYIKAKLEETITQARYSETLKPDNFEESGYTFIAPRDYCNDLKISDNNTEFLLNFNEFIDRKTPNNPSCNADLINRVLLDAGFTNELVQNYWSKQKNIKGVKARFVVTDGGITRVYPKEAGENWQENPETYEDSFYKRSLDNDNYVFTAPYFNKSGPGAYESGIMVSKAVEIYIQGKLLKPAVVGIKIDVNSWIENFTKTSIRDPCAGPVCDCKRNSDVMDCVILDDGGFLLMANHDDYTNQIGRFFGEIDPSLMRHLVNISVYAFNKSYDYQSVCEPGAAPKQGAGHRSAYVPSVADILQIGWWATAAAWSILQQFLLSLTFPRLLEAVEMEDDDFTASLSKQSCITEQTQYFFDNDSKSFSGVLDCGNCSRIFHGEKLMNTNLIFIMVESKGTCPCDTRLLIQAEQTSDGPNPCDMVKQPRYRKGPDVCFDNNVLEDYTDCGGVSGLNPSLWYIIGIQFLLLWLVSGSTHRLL
T1 sequence (P54284 whole entry, further chain): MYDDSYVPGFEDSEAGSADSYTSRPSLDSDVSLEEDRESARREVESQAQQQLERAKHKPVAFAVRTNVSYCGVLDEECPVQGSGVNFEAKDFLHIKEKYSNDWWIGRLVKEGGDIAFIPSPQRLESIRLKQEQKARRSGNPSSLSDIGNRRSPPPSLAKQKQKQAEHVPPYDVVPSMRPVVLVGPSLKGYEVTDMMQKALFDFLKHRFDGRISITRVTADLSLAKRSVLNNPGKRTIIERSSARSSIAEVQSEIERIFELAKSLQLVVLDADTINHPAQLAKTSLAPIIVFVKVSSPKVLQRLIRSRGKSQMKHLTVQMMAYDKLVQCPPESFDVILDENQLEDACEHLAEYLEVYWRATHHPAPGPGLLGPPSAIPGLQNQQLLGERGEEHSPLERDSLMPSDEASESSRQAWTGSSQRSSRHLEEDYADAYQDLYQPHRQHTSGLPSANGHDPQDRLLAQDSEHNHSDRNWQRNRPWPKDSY

For `CC(=O)NCCN(C)C(=O)c1c(-c2ccc(Cl)cc2)c(C)c(C(F)(F)F)n1Cc1ccccc1` [SC-37, N-(2-Acetylamino-ethyl)-1-benzyl-3-(4-chlorophenyl)-N,4-dimethyl-5-(trifluoromethyl)-1H-pyrrole-2-carboxylic acid amide], the inhibition at 3 µM was over 95%.
In the case of `Cc1c(-c2ccc(Cl)cc2F)c(C(=O)N(C)C2CC2)n(Cc2ccccc2)c1C(F)(F)F` [SC-159, 1-Benzyl-3-(4-chloro-2-fluoro-phenyl)-N-cyclopropyl-N,4-dimethyl-5-(trifluoromethyl)-1H-pyrrole-2-carboxylic acid amide], the inhibition at 3 µM was over 95%.
The result for `CN(CC1CCC[C@H]1O)C(=O)c1c(-c2ccc(Cl)cc2)cc(C(F)(F)F)n1Cc1ccccc1` (stereo partly drawn) [SC-200, 1-Benzyl-3-(4-chlorophenyl)-N-[[(2R)-2-hydroxy-cyclopentyl]-methyl]-N-methyl-5-(trifluoromethyl)-1H-pyrrole-2-carboxylic acid amide] reads over 95%; that for `Cc1c(-c2ccc(OC(F)(F)F)cc2)c(C(=O)N2CC(O)C2)n(Cc2ccccc2)c1C(F)(F)F` [SC-239, [1-Benzyl-4-methyl-5-(trifluoromethyl)-3-[4-(trifluoromethyloxy)-phenyl]-1H-pyrrol-2-yl]-(3-hydroxy-azetidin-1-yl)-methanone], 75 to 95%; that for `CN(CC(C)(C)C)C(=O)c1c(-c2ccc(Cl)cc2)c(S(C)(=O)=O)c(C(F)(F)F)n1Cc1ccccc1` [SC-259, 1-Benzyl-3-(4-chlorophenyl)-N-(2,2-dimethyl-propyl)-N-methyl-4-methylsulfonyl-5-(trifluoromethyl)-1H-pyrrole-2-carboxylic acid amide], 75 to 95%.
Turning to `Cc1c(-c2ccc(Cl)cc2)c(C(=O)N(C)CCO)n(Cc2ccccc2)c1C(F)(F)F` [SC-24, 1-Benzyl-3-(4-chlorophenyl)-N-(2-hydroxy-ethyl)-N,4-dimethyl-5-(trifluoromethyl)-1H-pyrrole-2-carboxylic acid amide], the inhibition at 3 µM was over 95%.
Then `Cc1cc(CN(C)C(=O)c2c(-c3ccc(Cl)cc3)cc(C(F)(F)F)n2Cc2ccccc2)on1` [SC-204, 1-Benzyl-3-(4-chlorophenyl)-N-methyl-N-[(3-methyl-isoxazol-5-yl)-methyl]-5-(trifluoromethyl)-1H-pyrrole-2-carboxylic acid amide], with 75 to 95%; and `O=C(c1c(-c2ccc(Cl)cc2)cc(C(F)(F)F)n1Cc1ccccc1)N1CCC(CO)C1` (stereo not shown) [SC-181, [1-Benzyl-3-(4-chlorophenyl)-5-(trifluoromethyl)-1H-pyrrol-2-yl]-[3-(hydroxymethyl)-pyrrolidin-1-yl]-methanone], with 75 to 95%.
Consider `Cc1c(-c2ccc(OC(F)(F)F)cc2)c(C(=O)N(C)C(C)(C)CO)n(Cc2ccccc2)c1C(F)(F)F` [SC-241, 1-Benzyl-N-(2-hydroxy-1,1-dimethyl-ethyl)-N,4-dimethyl-5-(trifluoromethyl)-3-[4-(trifluoromethyloxy)-phenyl]-1H-pyrrole-2-carboxylic acid amide], for which the inhibition at 3 µM was over 95%.
The result for `CN(CC(C)(C)O)C(=O)c1c(-c2ccc(Cl)cc2)cc(C(F)(F)F)n1Cc1ccccc1` [SC-68, 1-Benzyl-3-(4-chlorophenyl)-N-(2-hydroxy-2-methyl-propyl)-N-methyl-5-(trifluoromethyl)-1H-pyrrole-2-carboxylic acid amide] reads over 95%; that for `Cc1c(-c2ccc(Cl)cc2)c(C(=O)N(C)Cc2cnccn2)n(Cc2ccccc2)c1C(F)(F)F` [SC-146, 1-Benzyl-3-(4-chlorophenyl)-N,4-dimethyl-N-(pyrazin-2-yl-methyl)-5-(trifluoromethyl)-1H-pyrrole-2-carboxylic acid amide], 75 to 95%.
For the compound `Cc1c(-c2ccc(Cl)cc2)c(C(=O)N(C)CC2(CO)CC2)n(Cc2ccccc2)c1C(F)(F)F` [SC-115, 1-Benzyl-3-(4-chlorophenyl)-N-[[1-(hydroxymethyl)-cyclopropyl]-methyl]-N,4-dimethyl-5-(trifluoromethyl)-1H-pyrrole-2-carboxylic acid amide], the inhibition at 3 µM is over 95%.
Then `O=C1CN(C(=O)c2c(-c3ccc(Cl)cc3)cc(C(F)(F)F)n2Cc2ccccc2)CCN1` [SC-66, 4-[1-Benzyl-3-(4-chlorophenyl)-5-(trifluoromethyl)-1H-pyrrole-2-carbonyl]-piperazin-2-one], with 75 to 95%; and `CN(C)C(=O)c1c(-c2ccc(Cl)cc2)cc(C(F)(F)F)n1Cc1ccccc1` [SC-80, 1-Benzyl-3-(4-chlorophenyl)-N,N-dimethyl-5-(trifluoromethyl)-1H-pyrrole-2-carboxylic acid amide], with 75 to 95%.
Then `Cc1c(-c2ccc(Cl)cc2F)c(C(=O)NC2CC2)n(Cc2ccccc2)c1C(F)(F)F` [SC-172, 1-Benzyl-3-(4-chloro-2-fluoro-phenyl)-N-cyclopropyl-4-methyl-5-(trifluoromethyl)-1H-pyrrole-2-carboxylic acid amide], with 75 to 95%; and `Cc1c(-c2ccc(Cl)cc2)c(C(=O)N2CCNC(C)(C)C2)n(Cc2ccccc2)c1C(F)(F)F` [SC-29, [1-Benzyl-3-(4-chlorophenyl)-4-methyl-5-(trifluoromethyl)-1H-pyrrol-2-yl]-(3,3-dimethyl-piperazin-1-yl)-methanone], with over 95%.
Turning to `CN(CC1CCCCO1)C(=O)c1c(-c2ccc(Cl)cc2)cc(C(F)(F)F)n1Cc1ccccc1` (stereo not shown) [SC-202, 1-Benzyl-3-(4-chlorophenyl)-N-methyl-N-(tetrahydro-pyran-2-yl-methyl)-5-(trifluoromethyl)-1H-pyrrole-2-carboxylic acid amide], the inhibition at 3 µM is 75 to 95%.
On to `CN(C(=O)c1c(-c2ccc(Cl)cc2)cc(C(F)(F)F)n1Cc1ccccc1)C(C)(C)C` [SC-77, 1-Benzyl-N-tert-butyl-3-(4-chlorophenyl)-N-methyl-5-(trifluoromethyl)-1H-pyrrole-2-carboxylic acid amide], for which the inhibition at 3 µM lay in the range of 75 to 95%.
As to `Cc1c(-c2ccc(Cl)cc2)c(C(=O)N(C)CCS(C)(=O)=O)n(Cc2cccc(Cl)c2)c1C(F)(F)F` [SC-56, 3-(4-Chlorophenyl)-1-[(3-chlorophenyl)-methyl]-N,4-dimethyl-N-(2-methylsulfonyl-ethyl)-5-(trifluoromethyl)-1H-pyrrole-2-carboxylic acid amide], the inhibition at 3 µM is over 95%.
With `Cc1c(-c2ccc(F)c(Cl)c2)c(C(=O)N(C)CCS(C)(=O)=O)n(Cc2ccccc2)c1C(F)(F)F` [SC-252, 1-Benzyl-3-(3-chloro-4-fluoro-phenyl)-N,4-dimethyl-N-(2-methylsulfonyl-ethyl)-5-(trifluoromethyl)-1H-pyrrole-2-carboxylic acid amide], the inhibition at 3 µM was over 95%.
Consider `CN(CCC1CCCO1)C(=O)c1c(-c2ccc(Cl)cc2)cc(C(F)(F)F)n1Cc1ccccc1` (stereo not shown) [SC-195, 1-Benzyl-3-(4-chlorophenyl)-N-methyl-N-(2-tetrahydro-furan-2-yl-ethyl)-5-(trifluoromethyl)-1H-pyrrole-2-carboxylic acid amide], for which the inhibition at 3 µM was over 95%.
For the compound `Cc1c(-c2ccc(Cl)cc2)c(C(=O)N2CCOC(=O)C2)n(Cc2ccccc2)c1C(F)(F)F` [SC-50, 4-[1-Benzyl-3-(4-chlorophenyl)-4-methyl-5-(trifluoromethyl)-1H-pyrrole-2-carbonyl]-morpholin-2-one], the inhibition at 3 µM fell in the range of 75 to 95%.

The record behind these values is US9302988B2, “Fluoromethyl-substituted pyrrole carboxamides” (GRÜNENTHAL GMBH, priority 2012, dated 2016).
